According to patent US7011834B1, “Immunomodulating dimers” (The Board of Trustees of Leland Stanford Junior University, priority 1987, dated 2006):
Where no end group is shown, it is not given here.

Tests used:
[1] = test system: CD8+CTL line specific for HLA-A2; assay: Cytotoxicity assay: inhibition of lysis by established CTL, 51Cr-labeled JY targets; format: cell-based, human; conditions: for inhibition of lysis by established CTL: HLA-A2 specific CD8+CTL, JY targets, peptides 100 μg/ml, 4 h assay
Protocol: Cytotoxicity Assay. CTL assays were performed as described using ^51Cr-labeled EBV transformed B cells expressing the appropriate HLA allele as targets [[…] et al., J. Immunol. (1982) 129:2001]. In the present protocol, a CD8+CTL line specific for HLA-A2 was tested in the presence of various peptides for lysis of ^51Cr-labeled JY targets. Peptides were added to a final concentration of 100 μg/ml at the initiation of the 4 h assay. Each determination was the mean of triplicate wells. […] In these determinations, inhibition of cytolysis, as described above, employed the CTL cell line AJY, a long term CD8+CTL line specific for HLA-A2 and the target cell was the B-lymphoblastoid cell line JY (HLA-A2, B7). The cytotoxicity assay was performed as described by Clayberger et al., J. Exp. Med. (1984) 162:1709-1714; and Reiss et al., Proc Natl Acad Sci USA (1980) 77:5432-5436. The peptides were preincubated for 30 min with 1-3×10^3 CTLs before addition of 10^3 51Cr-labeled B-lymphoblastoid target cells. The results are reported for varying concentrations of the peptide with varying ratios of the two cell lines.

[2] = Half-life of peptide in rats; conditions: rat, in vivo, preliminary studies
Protocol: Therefore, we tested whether splenocytes obtained from rats treated with the peptides in vivo could differentiate into CTL ex vivo. In preliminary studies, the half-life of the B7.75-84 peptide was determined to be 2–3 hours in rats.

[3] = test system: Lew specific CTL precursors in splenocytes; assay: Limiting dilution assay for CTL precursors in splenocytes after in vivo peptide; set-up: species or system rat; conditions: PVG rats; for [CTL precursor frequency]^−1: single iv 2 mg, Lew stimulators
Protocol: The effect of peptides on CTL precursor frequencies in splenocytes was tested as follows. Limiting dilution analysis was carried out essentially as described (Moeller et al. 1993, supra; Skinner and Marbrook. J. Exp. Med. (1976) 143:1562). Briefly, spleens were removed from naive animals or from animals that had received an allograft a minimum of 60 days earlier and then teased into a single cell suspension. Responder cells were plated from 1000 to 40,000 cells per well (24 replicates per concentration) into round bottom microliter wells in RPMI 1640 supplemented with 10% fetal bovine serum (Hyclone, Logan, Utah), 2 mM L-glutamine, 5×10^−5M β-mercaptoethanol, 100 U/ml penicillin, 100 μg/ml streptomycin, 20% supernatant from Concanavalin A activated rat spleen cells, and 50 μM α-methyl mannoside. Then, 5×10^5 irradiated (2000 rads) stimulator cells were added to each well and plates were incubated in a humidified CO2 incubator. After 5 days, aliquots were removed and tested for lysis of ^51Cr-labeled Concanavalin A activated blasts. Aliquots of supernatant were counted in a gamma counter and CTL precursor frequency determined by linear regression (Skinner and Marbrook. 1976, supra). Wells were considered positive if specific release was >10%.
PVG (RT1^c) or ACI […] rats were treated with a single intravenous injection of saline or 2 mg of A2.75-84, B7.75-84, B2702.75-84, or RT1^a.75-84 peptide. Their spleens were removed on different days after peptide treatment, cultured under limiting dilution conditions for 5 days with irradiated (2000R) splenocytes from Lewis rats; i.e., Lew (RT1^1) stimulator cells, and assayed for lysis of ^51Cr-labeled Lew blasts. CTL precursor frequency was determined by linear regression analysis.

B7.84–75/75–84: SEQ ID NO:27 (also NO:35); Table 1 sequence read from dashes: YGRLNRLSERRESLRNLRGY (listed as Homo sapiens)
inhibition of lysis by established CTL [1]: did not inhibit CTL-mediated lysis at any concentration tested

B2702.70–84: SEQ ID NO:33, the 15-mer; Table 1 sequence read from dashes: KAQTDRENLRIALRY (listed as Homo sapiens)
inhibition of lysis by established CTL [1]: comparably effective in inhibiting cytolysis to B2072.75-84

B2702.75–84T^80: SEQ ID NO:25; threonine replaces isoleucine at position 80: RENLRTALRY (listed as Homo sapiens)
inhibition of lysis by established CTL [1]: did not inhibit lysis

REDLRIALRY (listed as Homo sapiens) [B2702.75–84D^77, aspartic replaces asparagine at position 77]
inhibition of lysis by established CTL [1]: did not inhibit lysis

RENLRILLRY (listed as Homo sapiens) [B2702.75–84L^81, leucine replaces alanine at position 81]
inhibition of lysis by established CTL [1]: inhibited lysis comparably to 02.75-84

RESLRNLRGY [B7.75–84]
half-life [2]: 2 to 3 h

RVDLRTLRGY (listed as Homo sapiens) [RT1A.75–84, peptide corresponding to the same residues from a rat MHC class I molecule, reference compound]
[CTL precursor frequency]^−1 ([3]; 0 days after peptide injection): 56,583 | [CTL precursor frequency]^−1 ([3]; 1 day after peptide injection): 54,631 | [CTL precursor frequency]^−1 ([3]; 7 days after peptide injection): 55,647 | [CTL precursor frequency]^−1 ([3]; 10 days after peptide injection): 56,583 | precursor frequency of Lew specific cells in splenocytes (1 in) ([3]; independent of the day on which the spleen was removed): ~55,000

WDRETQICKAKAQTDRENLRIALRY [B2702.60–84]
potency relative to B2702.75-84, based on concentration required to achieve 50% inhibition of cytotoxicity [1]: approximately 5 fold
